Laboratory results reported in patent US20180132483A1, “Method of Controlling Phytoparasitic Pests, Agrochemical Composition and Use Thereof” (priority 2016, published 2018).

Tested on: soil Fusarium sp.
Assay: Activity against soil Fusarium sp.

## CC(=O)O.CCCCCCCCCCCCNC(=N)N [dodine, 1-dodecylguanidinium acetate]
  Activity against soil Fusarium sp.: active
